In patent US20150010651A1, “Compositions and methods for the treatment of wounds” (priority 2009, published 2015):
Values joined by “and” are separate entries in the source; they are usually repeats but may differ in a detail not shown here. Equal values may be shown once. “Also recorded” adds a separate entry of the source.

Experiments:
[1] = test system: diabetic ulcer (non-healing wound); test: Case studies: powdered wound composition applied topically to infected non-healing wounds / diabetic ulcers of patients; type: in vivo, human
Source text: Thereafter, the wound compositions may be applied to the wound at least once a week until such time as the wound is satisfactorily healed. In one embodiment, a wound composition is applied once a week (after the initial daily application) for a period of at least seven weeks. It is understood that prior to each application, the wound may be rinsed with a sterile solution, such as saline, and allowed to dry. Thereafter, a wound composition may be applied and the wound wrapped in a suitable dressing.
A treatment plan was established for the patient. Under the treatment plan, the patient received: 1) Insulin 70/30 (Novoline) 50 IU morning, 25 IU night; and 2) intravenueously, Co-Amoxiclav 1.2 g+Gentamicin 80 mg+Metronidazole 400 mg in 100 ml N Saline/30 min (every 8 hours). After the injection of the intravenous antibiotics, the patient began taking oral antibiotics: 1) Co-Amoxiclav 625 mg (2 tablets) (twice daily); 2) Ciprofloxacin 500 mg once daily for 2 weeks; and 3) Ibuprofen 600 mg for 5 days (every 8 hours). Thereafter, the wound was cleaned with saline solution. A wound composition comprising a mixture of 300 mg powdered phenyloin (Dilantin®) and 500 mg of powdered Vitamin C was administered over the wound and the wound was dressed. The patient was advised to come back on a daily basis for dressing of the wound and reapplication of the wound composition.
(§1) The patient returned for 9 consecutive visits over the next nine days. Thereafter, the patient began weekly visits. With each visit, the wound was cleaned with saline solution and the powdered wound composition was applied topically to the wound, and redressed.
A treatment plan was established for the patient. Under the treatment plan, the patient received: 1) Insulin 70/30 (Novoline) 40 IU morning, 20IU night; and 2) intravenueously, Co-Amoxiclav 1.2 g+Gentamicin 80 mg+Metronidazole 400 mg in 100 ml N Saline/30 min. every 8 hours. After the injection of the intravenous antibiotics, the patient began taking oral antibiotics: 1) Co-Amoxiclav 625 mg (2 tablets) twice daily 2) Ciprofloxacin 500 mg once daily for 2 weeks; and 3) Ibuprofen 600 mg every 8 hours.; and (4) Co-diovan tablets (valsartan and hydrochlorothiazide) 80 mg/12.5 mg daily. Thereafter, the wound was cleaned with saline solution. A wound composition comprising 300 mg powdered phenyloin (Dilantin®) was administered over the wound and the wound was dressed. The patient was advised to come back on a daily basis for dressing of the wound and reapplication of the wound composition.
as §1, with “redressed. […] No further treatment was prescribed to the patient.” for “redressed.”

diabetic ulcers = settings: patients with diabetic ulcers; control group 45 days; cited from earlier work
[2] = one patient per Example, topical, weekly application, week 8

## O=C1NC(=O)C(c2ccccc2)(c2ccccc2)N1 [phenyloin, 5.5-diphenyl-2,4-imidazolidinedione]
[1]; Example 16 patient, topical, weekly application, week 13
  portion of the wound healed: approximately 60%
[1]; Example 16 patient, topical, weekly application, weeks 3-5
  appearance of the wound: continued to appear generally healthy
[1]; one patient per Example, Dilantin alone
  recurrence of the wound after healing: the wound returned in substantially the same location; also recorded: the wound returned in approximately the same location
[1]; one patient per Example, Dilantin alone, topical
  time the wound took to heal completely: approximately 20 weeks and ~27 weeks and ~22 weeks and approximately 25 weeks
[1]; one patient per Example, after treatment course
  amputation outcome: need to amputate the right leg below the knee; also recorded: need to amputate the left leg below the knee
[1]; one patient per Example, topical, daily visits for 9 days then weekly, week 1
  new skin formation (wound healing by secondary intention): signs of new skin formation
[1]; [2]
  granulation tissue formed: approximately 20%
  portion of the wound healed: approximately 35%; also recorded: approximately 25%
[1]; one patient per Example, topical, weekly application, week 9
  portion of the wound healed: approximately 40%
[1]; one patient per Example, topical, weekly application, week 10
  portion of the wound healed: approximately 60%
[1]; one patient per Example, topical, weekly application, weeks 2-4
  appearance of the wound: continued to appear generally healthy
[1]; one patient per Example, topical, weekly application, weeks 5-7
  healing of the wound as noted: beginning to heal very well, but was very slow healing
Diabetic ulcers
  mean healing time: 21 days
